Test system: Saccharomyces cerevisiae wild type strain BY4743
Experiment: AF1 metabolite analysis (GC-MS, LC-MS) of yeast treated with antifungal drugs
Type: cell-based

Structure (SMILES): OC(Cn1cncn1)(Cn1cncn1)c1ccc(F)cc1F [Fluconazole]
- Fold Change of guanosine (nLC): −0.993
- Fold Change of histidine (nLC): 0
- Fold Change of homogentisic/uric (nLC): 0
- Fold Change of hydrocortisone (nLC): 0
- Fold Change of indole3pyruvic acid (nLC): 0
- Fold Change of inostol/glucos/sorb (nLC): −0.4744
- Fold Change of isocitric/citric/qu (nLC): 1.457
- Fold Change of jasmonic acid (nLC): 0
- Fold Change of kinetin (nLC): 0
- Fold Change of lactic acid (nLC): −0.0439
- Fold Change of lauric acid (nLC): 0.3906
- Fold Change of leucine/isoleucine/ (nLC): 0.3306
- Fold Change of luteolin (nLC): 0
- Fold Change of malic acid (nLC): 0.4366
- Fold Change of malonic acid (nLC): 0
- Fold Change of menthol* (nLC): 0.04758
- Fold Change of methionine (nLC): 0
- Fold Change of nicotinic acid (nLC): 2.443
- Fold Change of nopaline (nLC): 0.3432
- Fold Change of oleic acid (nLC): −0.01684
- Fold Change of ornithine (nLC): 0.3508
- Fold Change of orotic acid (nLC): 0
- Fold Change of palmitic acid (nLC): −0.0233
- Fold Change of phenylalanine (nLC): 0.1527
- Fold Change of phenylpyruvic acid (nLC): 0
- Fold Change of phosphoenolpyruvate (nLC): 0
- Fold Change of pinitol (nLC): 0
- Fold Change of pipecolic acid (nLC): 0.2901
- Fold Change of porphobilinogen (nLC): 0
- Fold Change of proline (nLC): 0.4164
- Fold Change of pyridoxine (nLC): −0.04201
- Fold Change of 4-aminobenzoic acid (pLC): 0
- Fold Change of 4-methylcatechol (pLC): 0
- Fold Change of 4ambutyrate/dimglyc (pLC): −0.4383
- Fold Change of 5hydroxyLtryptophan (pLC): 0
- Fold Change of 6benzylaminopurine (pLC): 0
- Fold Change of DL-aminoadipic acid (pLC): 0.1155
- Fold Change of NacetylDglucosamine (pLC): 0
- Fold Change of NacetylLglutamate (pLC): 0
- Fold Change of NacetylLornithine (pLC): 0.1584
- Fold Change of adenine (pLC): −0.09439
- Fold Change of alanine/sarcosine (pLC): 0.1269
- Fold Change of allantoic acid (pLC): 0
- Fold Change of anthranilic acid (pLC): 0
- Fold Change of arginine (pLC): 0.1179
- Fold Change of argininosuccinate (pLC): 0
- Fold Change of asparagine (pLC): 0.3192
- Fold Change of aspartic acid (pLC): 0.214
- Fold Change of biotin (pLC): 0
- Fold Change of caffeine (pLC): 0
- Fold Change of citric acid TME (pLC): 0
- Fold Change of citrulline (pLC): 0.08252
- Fold Change of cytidine (pLC): 0
- Fold Change of cytosine (pLC): 0
- Fold Change of diaminopimelic acid (pLC): 0
- Fold Change of dihydrofolic acid (pLC): 0
- Fold Change of dipicolinic acid (pLC): 0
- Fold Change of folic acid (pLC): 0
- Fold Change of glucosamine (pLC): 0
- Fold Change of glucosamine6PO4 (pLC): 0
- Fold Change of glutamate (pLC): −0.06179
- Fold Change of glutathione (pLC): −0.05832
- Fold Change of histidine (pLC): 0
- Fold Change of hydrocortisone (pLC): 0
- Fold Change of hypoxanthine (pLC): 0.1298
- Fold Change of itaconic acid dimes (pLC): 0
- Fold Change of kinetin (pLC): 0
- Fold Change of leucine/isoleucine/ (pLC): 0.1638
- Fold Change of luteolin (pLC): 0
- Fold Change of mannitol (pLC): 0.152
- Fold Change of methionine (pLC): −0.2906
- Fold Change of mevalonic lactone (pLC): −0.5175
- Fold Change of niacinamide (pLC): 0
- Fold Change of nicotinic acid (pLC): −0.7982
- Fold Change of nopaline (pLC): 0
- Fold Change of ornithine (pLC): 0.4775
- Fold Change of phenylalanine (pLC): −0.1809
- Fold Change of phosphoenolpyruvate (pLC): 0
- Fold Change of pipecolic acid (pLC): 0.2583
- Fold Change of progesterone (pLC): 0
- Fold Change of proline (pLC): 0.2075
- Fold Change of pyridoxine (pLC): −0.3831

— patent publication US20040018500A1, “Methods and systems for analyzing complex biological systems” (priority 2001, published 2004)
